Results on 1 compound are retold here after patent US6800770B2, “Anti-spasticity of an eicosanoid analog” (Virginia Commonwealth University, priority 2002, dated 2004).

In test [1] the test system is spasticity in Biozzi ABH mice. The settings on record: 0.05 mg/kg i.v.; baseline vs 30 min after treatment.
Protocol: This was assessed to detect limb stiffness by analysis using a strain gauge (Baker et al 2000). The analogue signal from the strain gauge was amplified and digitally converted using an ComputerBoards Inc PCM-DAS16S/12 card (Amplicon, Brighton, UK). This was captured using Dacquire V10 software (D.Buckwell, Institute of Neurology, UK) and analyzed using Spike 2 software (Cambridge Electronics Design, UK). The hindlimbs were fully extended twice then moved to full flexion against the strain gauge. The mean of 4-8 individual readings per limb was taken for each time point. Results are expressed as means of forces of resistance to flexion (in Newtons) and SEM per group.
Statistical analysis was performed using Sigmastat 2.0 (Jandel/SPSS, USA) using one-way repeated measures analysis of variance (ANOVA) incorporating a pair-wise Student-Newman-Keuls (SNK) test. […] N=13 limbs analyzed from 8 spastic animals.
Arvanil treatment was carried out with and without pretreatment of the animals with SR141617A, SR144528 (known to inhibit CB1 and CB2 receptor function, respectively) and capsazepine, a known antagonist of the vanilloid recpetor (VR-1).
In the next test the target is T1, CB1 (Rattus norvegicus, UniProt P20272).
T1 construct: from whole rat brain membranes; from tissue; host or cells: whole rat brain membranes
The test is classed as binding. The conditions noted are these: displacement of [3H]CP55940, whole rat brain membranes; means ± S.D., n=3; read-out: CB1 affinity (Ki). Background: In a radioligand displacement assay an active substance lowers the binding of a labelled ligand.

In the next test the target is T2, human VR1 receptors (Homo sapiens, UniProt Q8NER1).
T2 construct: expressed in transfected cells; host or cells: HEK-hVR1 cells
Nature of the test: Enhancement of [Ca2+] via HEK-hVR1 cells. The test is classed as cell-based. From the text:
J. Pharm. Exp. Ther. 300: 984.

SMILES strings stand for the structures.

T2 sequence (Q8NER1 whole entry): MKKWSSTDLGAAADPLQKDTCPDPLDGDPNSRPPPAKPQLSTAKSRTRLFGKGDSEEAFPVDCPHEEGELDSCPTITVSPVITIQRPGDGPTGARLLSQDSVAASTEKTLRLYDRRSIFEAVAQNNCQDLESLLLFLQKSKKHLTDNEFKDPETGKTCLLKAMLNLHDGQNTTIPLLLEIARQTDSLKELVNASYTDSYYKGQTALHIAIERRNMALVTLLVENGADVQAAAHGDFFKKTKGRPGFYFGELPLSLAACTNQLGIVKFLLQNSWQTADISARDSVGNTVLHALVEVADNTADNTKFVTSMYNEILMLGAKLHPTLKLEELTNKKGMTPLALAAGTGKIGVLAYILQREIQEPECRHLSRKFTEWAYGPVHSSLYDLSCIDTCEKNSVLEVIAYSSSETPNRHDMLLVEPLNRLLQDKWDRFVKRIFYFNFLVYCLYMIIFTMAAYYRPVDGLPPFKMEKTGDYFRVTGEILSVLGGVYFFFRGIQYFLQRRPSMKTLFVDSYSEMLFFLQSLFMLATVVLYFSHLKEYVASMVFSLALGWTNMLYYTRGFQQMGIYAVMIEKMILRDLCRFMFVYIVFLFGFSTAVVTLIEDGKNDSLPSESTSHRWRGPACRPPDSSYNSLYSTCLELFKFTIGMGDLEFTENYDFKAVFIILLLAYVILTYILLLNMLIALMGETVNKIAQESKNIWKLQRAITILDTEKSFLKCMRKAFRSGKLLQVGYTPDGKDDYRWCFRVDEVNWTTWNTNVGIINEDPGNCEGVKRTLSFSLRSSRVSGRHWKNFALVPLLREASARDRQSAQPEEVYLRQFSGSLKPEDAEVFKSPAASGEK
T1 sequence (P20272 whole entry): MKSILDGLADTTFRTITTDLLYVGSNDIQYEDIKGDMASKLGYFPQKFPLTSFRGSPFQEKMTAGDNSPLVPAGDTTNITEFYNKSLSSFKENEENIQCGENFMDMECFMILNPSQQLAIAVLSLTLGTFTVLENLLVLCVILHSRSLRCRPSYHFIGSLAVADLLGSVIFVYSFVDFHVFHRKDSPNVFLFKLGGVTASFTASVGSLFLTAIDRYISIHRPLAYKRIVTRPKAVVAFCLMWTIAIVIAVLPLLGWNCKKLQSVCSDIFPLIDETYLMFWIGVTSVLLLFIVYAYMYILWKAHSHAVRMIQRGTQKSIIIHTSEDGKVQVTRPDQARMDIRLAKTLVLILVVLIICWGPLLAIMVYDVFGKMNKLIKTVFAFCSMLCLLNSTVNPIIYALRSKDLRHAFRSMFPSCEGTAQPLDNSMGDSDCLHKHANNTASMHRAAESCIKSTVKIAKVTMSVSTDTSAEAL

In general, Ki refers to a dissociation constant, usually derived from enzyme kinetics or from competition with a known ligand. For orientation: EC50 means the concentration needed to bring the measured effect to its halfway point. With `CCCCC/C=C\C/C=C\C/C=C\C/C=C\CCCC(=O)N(Cc1ccc(O)c(Cl)c1)Cc1ccc(O)c(Cl)c1` [O-2093, N,N-Di-3-chloro-4-hydroxybenzylarachadonamide], in test [1], the “decrease in resistance to flexion” value is around 35%. Also, the Ki at CB1 was 1290 ± 140 nM. In addition, the Emax on human VR1 receptors (in parentheses in the hVR1 potency column, read-out: hVR1 efficacy (maximal effect as percentage of the effect of 4 μM capsaicin)) stood at 26.9%. The EC50 on human VR1 receptors (read-out: hVR1 potency (EC50), means ± S.D., n=3) was above 50000 nM.
